The source made the active and inactive calls. No cut-off for these calls is given here.
How the values were obtained:
[1] = Anti-cancer activity against human ovarian cancer cells assessed as cell growth inhibition measured after 48 hrs by SRB method; assay type: functional; details: Ovarian cancer cell line
A498 = assay: Anti-cancer activity against human A498 cells assessed as cell growth inhibition measured after 48 hrs by SRB method; assay type: functional, cell-based
DU-145 = assay: Anti-cancer activity against human DU-145 cells assessed as cell growth inhibition measured after 48 hrs by SRB method; assay type: functional, cell-based
PC-3 = assay: Anti-cancer activity against human PC-3 cells assessed as cell growth inhibition measured after 48 hrs by SRB method; assay type: functional, cell-based
KM12 = assay: Anti-cancer activity against human KM12 cells assessed as cell growth inhibition measured after 48 hrs by SRB method; assay type: functional, cell-based
OVCAR-8 = assay: Anti-cancer activity against human OVCAR-8 cells assessed as cell growth inhibition measured after 48 hrs by SRB method; assay type: functional, cell-based
[2] = Anti-cancer activity against human renal cancer cells assessed as cell growth inhibition measured after 48 hrs by SRB method; assay type: functional; details: Renal cancer cell line
HCT-116 = assay: Anti-cancer activity against human HCT-116 cells assessed as cell growth inhibition measured after 48 hrs by SRB method; assay type: functional, cell-based
SK-MEL-28 = assay: Anti-cancer activity against human SK-MEL-28 cells assessed as cell growth inhibition measured after 48 hrs by SRB method; assay type: functional, cell-based
T47D = assay: Anti-cancer activity against human T47D cells assessed as cell growth inhibition measured after 48 hrs by SRB method; assay type: functional, cell-based
UACC-257 = assay: Anti-cancer activity against human UACC-257 cells assessed as cell growth inhibition measured after 48 hrs by SRB method; assay type: functional, cell-based
OVCAR-4 = assay: Anti-cancer activity against human OVCAR-4 cells assessed as cell growth inhibition measured after 48 hrs by SRB method; assay type: functional, cell-based
BT-549 = assay: Anti-cancer activity against human BT-549 cells assessed as cell growth inhibition measured after 48 hrs by SRB method; assay type: functional, cell-based
[3] = Anti-cancer activity against human prostate cancer cells assessed as cell growth inhibition measured after 48 hrs by SRB method; assay type: functional; details: Prostate tumor cell line
NCI-H460 = assay: Anti-cancer activity against human NCI-H460 cells assessed as cell growth inhibition measured after 48 hrs by SRB method; assay type: functional, cell-based
M14 = assay: Anti-cancer activity against human M14 cells assessed as cell growth inhibition measured after 48 hrs by SRB method; assay type: functional, cell-based
SK-OV-3 = assay: Anti-cancer activity against human SK-OV-3 cells assessed as cell growth inhibition measured after 48 hrs by SRB method; assay type: functional, cell-based
SK-MEL-2 = assay: Anti-cancer activity against human SK-MEL-2 cells assessed as cell growth inhibition measured after 48 hrs by SRB method; assay type: functional, cell-based
LOX IMVI = assay: Anti-cancer activity against human LOX IMVI cells assessed as cell growth inhibition measured after 48 hrs by SRB method; assay type: functional, cell-based
UO-31 = assay: Anti-cancer activity against human UO-31 cells assessed as cell growth inhibition measured after 48 hrs by SRB method; assay type: functional, cell-based
MCF7 = assay: Anti-cancer activity against human MCF-7 cells assessed as cell growth inhibition measured after 48 hrs by SRB method; assay type: functional, cell-based
SR = assay: Anti-cancer activity against human SR cells assessed as cell growth inhibition measured after 48 hrs by SRB method; assay type: functional, cell-based
RPMI-8226 = assay: Anti-cancer activity against human RPMI-8226 cells assessed as cell growth inhibition measured after 48 hrs by SRB method; assay type: functional, cell-based
NCI-H23 = assay: Anti-cancer activity against human NCI-H23 cells assessed as cell growth inhibition measured after 48 hrs by SRB method; assay type: functional, cell-based
HCT-15 = assay: Anti-cancer activity against human HCT-15 cells assessed as cell growth inhibition measured after 48 hrs by SRB method; assay type: functional, cell-based
Leukemia cell = assay: Anti-cancer activity against human leukemia cells assessed as cell growth inhibition measured after 48 hrs by SRB method; assay type: functional
NCI-H322M = assay: Anti-cancer activity against human NCI-H322M cells assessed as cell growth inhibition measured after 48 hrs by SRB method; assay type: functional, cell-based
OVCAR-3 = assay: Anti-cancer activity against human OVCAR-3 cells assessed as cell growth inhibition measured after 48 hrs by SRB method; assay type: functional, cell-based

C1=C2CNCC3=Cc4c(ccc5ccccc45)OC23Oc2ccc3ccccc3c21
GI50 [1]: 3.63 µM | IC50 (A498; A498, 48 h): 16.2 µM | GI50 (A498; A498, time 48 hrs): 3.89 µM | TGI (A498; A498, time 48 hrs): 17 µM | CC50 (A498; A498, time 48 hrs, read-out: LC50 (the source's name)): 4.34 µM | IC50 (DU-145; DU-145, 48 h): 4.68 µM | GI50 (DU-145; DU-145, time 48 hrs): 3.31 µM | TGI (DU-145; DU-145, time 48 hrs): 11.2 µM | CC50 (DU-145; DU-145, time 48 hrs, read-out: LC50 (the source's name)): 4.41 µM | IC50 (PC-3; PC-3, 48 h): 10 µM | GI50 (PC-3; PC-3, time 48 hrs): 3.47 µM | LC50 (PC-3; PC-3, time 48 hrs): 4.16 µM | TGI (PC-3; PC-3, time 48 hrs): 18.2 µM | IC50 (KM12; KM12, 48 h): 5.75 µM | GI50 (KM12; KM12, time 48 hrs): 3.8 µM | LC50 (KM12; KM12, time 48 hrs): 4.25 µM | TGI (KM12; KM12, time 48 hrs): 16.2 µM | IC50 (OVCAR-8; OVCAR-8, 48 h): 4.79 µM | GI50 (OVCAR-8; OVCAR-8, time 48 hrs): 3.02 µM | TGI (OVCAR-8; OVCAR-8, time 48 hrs): 14.8 µM | CC50 (OVCAR-8; OVCAR-8, time 48 hrs, read-out: LC50 (the source's name)): 4 µM | GI50 [2]: 3.98 µM | IC50 (HCT-116; HCT-116, 48 h): 3.72 µM | GI50 (HCT-116; HCT-116, time 48 hrs): 3.02 µM | LC50 (HCT-116; HCT-116, time 48 hrs): 4 µM | TGI (HCT-116; HCT-116, time 48 hrs): 13.2 µM | TGI (SK-MEL-28): inactive | IC50 (SK-MEL-28; SK-MEL-28, 48 h): 10 µM | GI50 (SK-MEL-28; SK-MEL-28, time 48 hrs): 7.41 µM | IC50 (T47D; 48 h): 24.5 µM | GI50 (T47D; time 48 hrs): 8.32 µM | TGI (T47D; time 48 hrs): 23.4 µM | CC50 (T47D; time 48 hrs, read-out: LC50 (the source's name)): 4.22 µM | IC50 (UACC-257; UACC-257, 48 h): 37.2 µM | GI50 (UACC-257; UACC-257, time 48 hrs): 12.6 µM | LC50 (50% lethal concentration) (UACC-257; UACC-257, time 48 hrs): 4 µM | TGI (UACC-257; UACC-257, time 48 hrs): 38.9 µM | IC50 (OVCAR-4; OVCAR-4, 48 h): 11.7 µM | GI50 (OVCAR-4; OVCAR-4, time 48 hrs): 4.68 µM | LC50 (OVCAR-4; OVCAR-4, time 48 hrs): 4.21 µM | TGI (OVCAR-4; OVCAR-4, time 48 hrs): 20 µM | IC50 (BT-549; BT-549, 48 h): 40.7 µM | GI50 (BT-549; BT-549, time 48 hrs): 11.2 µM | TGI (BT-549; BT-549, time 48 hrs): 40.7 µM | CC50 (BT-549; BT-549, time 48 hrs, read-out: LC50 (the source's name)): 4 µM | GI50 [3]: 3.39 µM | IC50 (NCI-H460; NCI-H460, 48 h): 3.72 µM | GI50 (NCI-H460; NCI-H460, time 48 hrs): 3.24 µM | TGI (NCI-H460; NCI-H460, time 48 hrs): 13.2 µM | CC50 (NCI-H460; NCI-H460, time 48 hrs, read-out: LC50 (the source's name)): 4.14 µM | IC50 (M14; M14, 48 h): 3.8 µM | GI50 (M14; M14, time 48 hrs): 2.19 µM | TGI (M14; M14, time 48 hrs): 5.13 µM | CC50 (M14; M14, time 48 hrs, read-out: LC50 (the source's name)): 4.56 µM | IC50 (SK-OV-3; SK-OV-3, 48 h): 8.13 µM | GI50 (SK-OV-3; SK-OV-3, time 48 hrs): 3.39 µM | TGI (SK-OV-3; SK-OV-3, time 48 hrs): 12.9 µM | CC50 (SK-OV-3; SK-OV-3, time 48 hrs, read-out: LC50 (the source's name)): 4.26 µM | IC50 (SK-MEL-2; SK-MEL-2, 48 h): 25.7 µM | GI50 (SK-MEL-2; SK-MEL-2, time 48 hrs): 5.5 µM | TGI (SK-MEL-2; SK-MEL-2, time 48 hrs): 22.9 µM | CC50 (SK-MEL-2; SK-MEL-2, time 48 hrs, read-out: LC50 (the source's name)): 4.03 µM | IC50 (LOX IMVI; 48 h): 3.39 µM | GI50 (LOX IMVI; time 48 hrs): 2.45 µM | LC50 (50% lethal concentration) (LOX IMVI; time 48 hrs): 4 µM | TGI (LOX IMVI; time 48 hrs): 7.41 µM | IC50 (UO-31; UO-31, 48 h): 17.4 µM | GI50 (UO-31; UO-31, time 48 hrs): 3.55 µM | TGI (UO-31; UO-31, time 48 hrs): 21.4 µM | CC50 (UO-31; UO-31, time 48 hrs, read-out: LC50 (the source's name)): 4.16 µM | IC50 (MCF7; MCF7, 48 h): 3.98 µM | GI50 (MCF7; MCF7, time 48 hrs): 2.82 µM | TGI (MCF7; MCF7, time 48 hrs): 12.6 µM | CC50 (MCF7; MCF7, time 48 hrs, read-out: LC50 (the source's name)): 4.26 µM | IC50 (SR; 48 h): 3.8 µM | GI50 (SR; time 48 hrs): 2.19 µM | LC50 (SR; time 48 hrs): 4 µM | TGI (SR; time 48 hrs): 5.37 µM | IC50 (RPMI-8226; RPMI-8226, 48 h): 13.8 µM | GI50 (RPMI-8226; RPMI-8226, time 48 hrs): 5.5 µM | TGI (RPMI-8226; RPMI-8226, time 48 hrs): 64.6 µM | CC50 (RPMI-8226; RPMI-8226, time 48 hrs, read-out: LC50 (the source's name)): 4 µM | IC50 (NCI-H23; NCI-H23, 48 h): 20.9 µM | GI50 (NCI-H23; NCI-H23, time 48 hrs): 6.92 µM | TGI (NCI-H23; NCI-H23, time 48 hrs): 31.6 µM | IC50 (HCT-15; HCT-15, 48 h): 5.5 µM | GI50 (HCT-15; HCT-15, time 48 hrs): 3.89 µM | LC50 (HCT-15; HCT-15, time 48 hrs): 4 µM | TGI (HCT-15; HCT-15, time 48 hrs): 22.4 µM | GI50 (Leukemia cell): 3.16 µM | IC50 (NCI-H322M; 48 h): 27.5 µM | GI50 (NCI-H322M; time 48 hrs): 10.7 µM | TGI (NCI-H322M; time 48 hrs): 33.1 µM | IC50 (OVCAR-3; OVCAR-3, 48 h): 4.07 µM | GI50 (OVCAR-3; OVCAR-3, time 48 hrs): 2.34 µM | LC50 (OVCAR-3; OVCAR-3, time 48 hrs): 4.71 µM | TGI (OVCAR-3; OVCAR-3, time 48 hrs): 5.5 µM

Source: ChEMBL document CHEMBL4680293, “Tubulin inhibitory activity of a novel colchicine-binding compounds based on a dinaphthospiropyranran scaffold” (Bioorg Med Chem, 2021)
